Series [1] deals with apoptotic cells. The conditions noted are these: cited from earlier work.
In a further series the test system is POPC:POPS vesicles. The series can be described thus: Vesicle fluorescence titration of PSS-380, POPC:POPS vesicles. Format: binding. The conditions noted are these: HEPES 10 mM. As to the method:
(§1) Unilamellar vesicles were prepared by initial hydration of a dried lipid film followed by repeated extrusion through polycarbonate membranes having a pore size of 100 nm. Aliquots of vesicle suspension were added to a solution of PSS-380 (1 μM, 3 mL) in HEPES buffer (10 mM) at pH 7.2. The fluorescence emission intensity at 440 nm (ex 380 nm) was measured 15 seconds after the addition of each aliquot.

Series [2] concerns POPC:POPG (50:50) vesicles. Description: Vesicle fluorescence titration of PSS-380, POPC:POPG vesicles. The class given is binding. The conditions noted are these: 50:50, PSS-380 1 μM, HEPES 10 mM, pH 7.2, ex 380, em 440 nm. As to the method:
as §1

In series [3] the test system is POPC:POPA (50:50) vesicles. The series can be described thus: Vesicle fluorescence titration of PSS-380, POPC:POPA vesicles. Format: binding. Conditions: 50:50, PSS-380 1 μM, HEPES 10 mM, pH 7.2, ex 380, em 440 nm. As to the method: as §1
A further series has as its system 100% POPC vesicles. Description: Vesicle fluorescence titration of PSS-380, zwitterionic POPC vesicles. The class given is binding. As to the method:
as §1

In series [4] the test system is vesicle membranes containing anionic phospholipids (phosphatidylserine, phosphatidylglycerol, phosphatidic acid). Description: Fluorescence response to vesicle membranes containing anionic phospholipids. Format: binding. The conditions noted are these: more than a few percent of phosphatidylserine, phosphatidylglycerol or phosphatidic acid. As to the method:
as §1

Series [5] is described as follows: Fluorescence titration with monodispersed phospholipids. Format: binding. The conditions noted are these: DHPC:DHPS (1:1) titration, micromolar concentrations. The source says:
(§2) Although the fluorescence emission of PSS-380 increases in the presence of vesicles containing PS, it is unchanged if the PS is monodispersed. […] Titration of PSS-380 with increasing amounts of a DHPC:DHPS (1:1) mixture results in no change in fluorescence intensity. Further evidence that PSS-380 has a weak affinity for DHPS and DHPC in water was gained from ^31P NMR titration experiments. The ^31P signals for phospholipid head groups hardly move upon addition of PSS-380. This is in line with previous studies with PSS-380 showing that it has low affinity for neutral or mono-anionic molecules in water, Ojida, A., Mito-Oka, Y., Inoue, M. A. & Hamachi, I. (2002) J. Am. Chem. Soc., 124, 6256–6258, the entire contents and disclosure of which is hereby incorporated by reference.

Series [6] in a line: 31P NMR titration with DHPS and DHPC in water. Format: binding.
Text: as §2

A further series concerns erythrocytes. Description: Erythrocyte studies, normal versus scrambled erythrocytes. Conditions: PSS-380 1 μM, 5 mM TES, 150 mM NaCl, pH 7.4, 4×10^9 erythrocytes. The class given is cell-based, human. As to the method:
Aliquots (10 μL) containing 4.0×10^9 of normal or “scrambled” erythrocytes were added to a solution of PSS-380 (1 μM, 3 mL) in 5 mM TES, 150 mM NaCl, pH 7.4. The erythrocytes were prepared in the following way. Fresh human blood was collected in ice-cold phosphate-buffered-saline (PBS) containing 10 U/mL of heparin. The samples were centrifuged and the supernatant and the top 10% of the erythrocytes were removed. The wash was repeated two more times. An equal volume of PBS was added to the remaining pellet. The desired number of cells was removed, centrifuged and the supernatant discarded. Four volumes of lysis buffer (0.1×PBS containing 0.1 mM EGTA, 1 mM MgCl2, and 1% BSA, plus 1 mM CaCl2 for “scrambled” erythrocytes only) were added to the pellet. The suspensions were vortexed and the lysed cells were placed on ice. After 2 minutes, the cells were resealed by adding 0.4 volumes (relative to the size of the original pellet) of 10×PBS. The tubes were gently inverted and warmed to 37° C. After 30 minutes, 100 volumes of PBS were added, then the cells were centrifuged into pellets, washed three times, and resuspended in TES buffer for use.

Series [7] concerns Jurkat cells. The series can be described thus: Single-well bulk fluorescence assay for apoptosis. The class given is cell-based. The conditions noted are these: apoptosis induced by camptothecin. As to the method:
The ability of PSS-380 to detect cell apoptosis was also examined in the present invention. This was approached in three ways. First, it was assessed whether PSS-380 could be used in a single-well, bulk fluorescence assay for apoptosis. […] Thus, cell apoptosis may be detected qualitatively using PSS-380 in a simple, single-well, bulk fluorecence assay.

For series [8], the system named is apoptotic cells. The series can be described thus: Cell staining and fluorescence microscopy of apoptotic cells. Format: cell-based. As to the method: Jurkat E6-1 cells were grown in RPMI 1640 growth media supplemented with 10% fetal bovine serum. MCF-7 cells were grown in DMEM growth media with 10% fetal bovine serum. […] Suspended cells (Jurkat) were grown to a density of 1×10^6 cells/mL. Before staining with annexin V-FITC, the growth media was changed to a binding buffer containing 5 mM TES/145 mM NaCl, 2.5 mM CaCl2, at pH 7.4. The cells were incubated with annexin V-FITC (10 μL of Pharmingen stock solution per mL cell suspension), 7AAD (5 μL of 50 μg/mL stock solution per mL cell suspension), and PSS-380 (20 μL of 1 mM stock solution per mL cell suspension) for 15 minutes at 37° C. The incubation mixture was aspirated and changed to a buffer containing 5 mM TES, 145 mM NaCl, pH 7.4. At this point, the Jurkat cell suspensions were added to 16-well chamber-slides. Cells were observed directly on an Axiovert S100 TV microscope (Carl Zeiss) equipped with filter sets DAPI/Hoechst/[…]/Bodipy/Fluo3/DiO, Cy3 (Chroma). Pictures were taken using a black and white digital camera and colored afterwards using Photoshop 6.0 software package (Adobe). Fluorescence microscopy was also used to evaluate if PSS-380 could identify sub-populations of live, apoptotic, and dead cells. Cell apoptosis was induced by treatment with camptothecin, or the calcium ionophore A23187. The drug-treated cells and untreated control cells were subsequently stained with a mixture of annexin V-FITC (green), PSS-380 (blue) and 7AAD (red). FIGS. 5, 6 and 7 display typical microscopic images produced using this method. Live cells are not stained by any of the dyes; whereas, staining by 7AAD identifies dead cells with permeable membranes. Cells that are only stained by annexin V-FITC or PSS-380 are defined as apoptotic. The microscopic images show a slight statistical variation in cell staining, due in part to the fact that PSS-380 and annexin V-FITC are competing for the same cell surface binding sites. If the staining experiments are repeated using either annexin V or PSS-380 alone, the emission from positive cells is more homogeneous and with similar intensity.

In series [9] the test system is Jurkat cells. Description: Toxicity of PSS-380, flow cytometry with PI. The class given is cell-based. The conditions noted are these: 100 μM, one hour. As to the method: Tests were performed to establish the toxicity of PSS-380.
The conditions of series [10]: in water; cited from earlier work.
The test system of series [11] is membranes that are rich in PS. Conditions: cited from earlier work.

“Also recorded” adds a separate entry of the source.

`CCCCN(CCCC)c1ccc(/C=C/c2cc[n+](CCC[N+](CC)(CC)CC)cc2)cc1.[Br-].[Br-]` [FM1-43]: the “signal difference between normal cells and apoptotic cells” value in the series with apoptotic cells [1] is listed as 6–10 fold.

On to `CCCCN1C(=O)C(=C/C=C/C=C2\Oc3ccccc3N2CCCS(=O)(=O)[O-])C(=O)N(CCCC)C1=S.[Na+]` [MC540], for which the “signal difference between normal cells and apoptotic cells” value in the series on apoptotic cells [1] was “about five fold”.

In the case of `O=[N+]([O-])[O-].O=[N+]([O-])[O-].O=[N+]([O-])[O-].O=[N+]([O-])[O-].[Zn+2].[Zn+2].c1ccc(CN(Cc2ccccn2)Cc2c3ccccc3c(CN(Cc3ccccn3)Cc3ccccn3)c3ccccc23)nc1` [PSS-380], the “change in fluorescence intensity, POPC:POPS 50:50 vesicles” value in the series with POPC:POPS vesicles (50:50, PSS-380 1 μM, pH 7.2, ex 380, em 440 nm) was “ten-fold increase”. Moreover, in the series with POPC:POPS vesicles (POPC:POPS 95:5, PSS-380 1 μM, pH 7.2), the “change in fluorescence emission, vesicles containing 5 mol % of POPS” value is “four-fold rise”. Besides, the “change in fluorescence intensity, POPC:POPG vesicles” value in [2] is recorded as “eleven-fold increase”. The “change in fluorescence intensity, POPC:POPA vesicles” value in series [3] was “six-fold increase”. The “affinity with membranes composed only of zwitterionic phospholipids” value with 100% POPC vesicles was “no apparent affinity”. Also, the “change in fluorescence after addition of zwitterionic POPC vesicles” value with 100% POPC vesicles (PSS-380 1 μM, HEPES 10 mM, pH 7.2, ex 380, em 440 nm) was “not affected; also recorded: No change”. Further, the “change in fluorescence intensity with vesicle membranes containing anionic phospholipids” value in [4] was “increases up to ten-fold”. The “change in fluorescence intensity with monodispersed phospholipids” value in [5] is on record as “not affected; also recorded: no change”. Moreover, the “movement of 31P signals for phospholipid head groups upon addition of sensor” value in series [6] is “hardly move”. Also, the “fluorescence induced by scrambled erythrocytes compared to equal number of normal erythrocytes” value in the series with erythrocytes was “much higher”. Besides, the “emission in presence of apoptotic Jurkat cells versus equal number of live cells” value in the series on Jurkat cells [7] is recorded as “twice as intense (±5%)”. In the series with apoptotic cells [8], the “effect of the presence of Ca^2+ on binding to apoptotic cells” value was “not noticeably inhibited” and the “speed of binding to apoptotic cells” value is listed as “almost instantaneous”. In addition, the “staining after treatment with 10 mM EDTA” value in the series on apoptotic cells [8] (10 mM EDTA) was “fades rapidly”. In addition, the “staining intensity compared with annexin V” value in the series with apoptotic cells [8] (microscopy data) is reported as “more intense than annexin V”. The “change in cell viability, judged by PI staining” value in the series with Jurkat cells [9] is “no change in cell viability”. Further, in series [10], the “association constant for phosphorylated compounds like phosphotyrosine” value was “around 10^7 M^−1”.

With annexin V: 35 Kd PS-binding protein, the “incubation time required for complete binding” value in series [11] is “up to one hour”. Moreover, the “association constant for binding to membranes that are rich in PS” value in series [11] (in the presence of sufficient calcium) is “around 10^8 M^−1”. Moreover, the “signal difference between normal cells and apoptotic cells” value with apoptotic cells [1] is on record as “up to 100 fold”.

Turning to “anthracene zinc dipicolylamine [AZD, reference compound]”, the “change in fluorescence intensity with vesicle membranes containing anionic phospholipids” value in series [4] was “hardly changed”.
